Biological target: T1, Bifunctional epoxide hydrolase 2 (Homo sapiens, UniProt P34913)
T1 sequence (P34913 whole entry): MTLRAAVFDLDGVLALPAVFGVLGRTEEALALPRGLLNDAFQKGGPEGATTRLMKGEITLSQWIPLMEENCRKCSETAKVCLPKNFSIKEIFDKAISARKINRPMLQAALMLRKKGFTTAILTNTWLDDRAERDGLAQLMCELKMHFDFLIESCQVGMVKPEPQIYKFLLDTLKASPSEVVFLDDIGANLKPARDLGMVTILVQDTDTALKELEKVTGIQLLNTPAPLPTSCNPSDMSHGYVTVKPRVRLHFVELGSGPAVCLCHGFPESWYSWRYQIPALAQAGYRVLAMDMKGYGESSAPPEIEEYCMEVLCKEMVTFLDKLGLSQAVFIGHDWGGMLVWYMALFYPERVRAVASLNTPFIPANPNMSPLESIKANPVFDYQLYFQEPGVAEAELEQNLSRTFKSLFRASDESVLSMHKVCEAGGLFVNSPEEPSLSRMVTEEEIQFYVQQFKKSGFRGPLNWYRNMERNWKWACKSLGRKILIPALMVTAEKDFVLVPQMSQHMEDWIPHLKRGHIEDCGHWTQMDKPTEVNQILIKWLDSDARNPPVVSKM
Test: Enzyme Assay: Test compounds (1.6 mM stock in DMSO) were diluted 3 fold in series in DMSO and 0.8 microliters per well were added into 384-well NBS microplates (Corning). Resorufin epoxide substrate (20 uM stock in DMSO) was diluted to 5 μM with Assay Buffer (25 mM bis-Tris-HCl, pH 7.0, 1 mM DTT and 0.2 mg/ml BSA) and 8 microliters per well were added to the microplates. Thirty two microliters per well of 3.6 nM soluble epoxide hydrolase in Assay Buffer was then added. The samples were incubated at room temperature and assay signals were monitored by reading excitation at 530 nm and emission fluorescence at 590 nm on a PlateVision (Zeiss) reader every 2 minutes for 8 times.

IC50: 79 nM
SMILES: O=C(NCc1ccc(Cl)cc1Cl)N1CC2(C1)CN(S(=O)(=O)c1ccccc1)C2

— ChEMBL document CHEMBL3886262, “Azetidine compounds, compositions and methods of use” (2015)
